{
  "source": "patent US20250108038A1",
  "about": "(priority 2023, published 2025)",
  "test_system": "Long Evans rats",
  "assay": "Behavioral satiety sequence (BSS)",
  "assay_type": "in vivo, Long Evans rat",
  "excerpt": "The Behavioural Satiety Sequence (BSS) is a technique used to evaluate physiological satiety. It is based on the expression of a sequence of behaviors including eating, grooming, locomotor activity, followed by resting, which are typically observed in rodents post-ingestion (Halford et al, 1998, Pharmacology Biochemistry and Behaviour. 61(2): 159-168). The BSS is a widely used model for determining the effects of novel pharmaceuticals on food intake and measures of satiety in rodents (Oliveira et al, 2011, Revista de Nutrição. 24(4) 619-628), and to discriminate the cause of reduced food intake following pharmacological manipulation. For example, treatments that may reduce food intake by non-specific mechanisms, such as immobility, malaise, and taste adulteration, will disrupt this sequence (Halford et al, 1998, Pharmacology Biochemistry and Behaviour. 61(2): 159-168).\nSpecifically, 12 male Long-Evans rats were food-deprived for 22 h with a 2 h feeding period each day. Rats were trained to consume daily food during the 2 h period over 25 days. The testing phase was initiated once the rats consistently consumed 16-18 g of food per day with ≤10% variance in amount of feed consumed. Feeding took place in designated individual boxes in a quiet room separate from the housing room. Continuous remote monitoring via video camera during feeding was used to assess the BSS. Food consumption was measured by weighing the total available food before and after the 2 h feeding window, correcting for spillage. Lorcaserin (1 mg/kg) was included as a reference control (Higgins et al, 2011, Neuropsychopharmacology. 37(5): 1177-1191). Subjects were tested using a repeated-measures, Latin square design with 2-3 days wash-out between treatment cycles.\nOn scheduled test days, animals were monitored remotely via video camera during the feeding access period. The occurrence of four mutually exclusive behaviors (eating/drinking, grooming, active, rest) were individually scored. Over the 2 h feeding period, behaviors were assessed every 30 seconds. Scores were compiled into 23 5 min timebins (timebin 24 was removed due to early removal of animals) and the frequency of each behavior within each timebin was calculated to determine a temporal frequency of each measure (Rodgers et al, 2010, Pharmacology Biochemistry and Behaviour. 97: 3-14). Percentage time was plotted for each behavioral sequence in each timebin to compare between treatment groups (Higgins et al, 2011, Neuropsychopharmacology. 37(5): 1177-1191).",
  "key": {"[1]": {"conditions": "lorcaserin 1 mg/kg, AVG of animals LT-1 to LT-12"}, "[2]": {"conditions": "lorcaserin 1 mg/kg, raw score per animal (LT-1 to LT-12), hydrochloride"}},
  "note": "“And” between values parts separate entries of the source, which are not always exact repeats. Equal values may be shown once. Where a name gives a salt, the structure may show the parent alone.",
  "data": [
    {"smiles": "C[C@H]1CNCCc2ccc(Cl)cc21", "note": "[lorcaserin, Lorcaserin hydrochloride, reference compound]", "values": [
      {"measurement": "BSS scoring R (resting), Time Bin 6 (25-30 TOTAL)", "setting": "Lorcaserin 1 mg/kg, raw data per animal LT-1 to LT-12, 0-0.5 hours, hydrochloride", "result": "1 (3×) and 0 (8×) and 3"},
      {"measurement": "BSS scoring A (active), Time Bin 19 (90-95 TOTAL), AVG", "setting": "[1]", "result": 0.10},
      {"measurement": "BSS scoring A (active), Time Bin 20 (95-100 TOTAL), AVG", "setting": "[1]", "result": 0.08},
      {"measurement": "BSS scoring A (active), Time Bin 21 (100-105 TOTAL), AVG", "setting": "[1]", "result": 0.06},
      {"measurement": "BSS scoring A (active), Time Bin 22 (105-110 TOTAL), AVG", "setting": "[1]", "result": 0.02},
      {"measurement": "BSS scoring A (active), Time Bin 23 (110-115 TOTAL), AVG", "setting": "[1]", "result": 0.06},
      {"measurement": "BSS scoring A (active), Time Bin 24 (115-120 TOTAL), AVG", "setting": "[1]", "result": 0.10},
      {"measurement": "BSS scoring E (eating/drinking), Time Bin 19 (90-95 TOTAL), AVG", "setting": "[1]", "result": 0.77},
      {"measurement": "BSS scoring E (eating/drinking), Time Bin 20 (95-100 TOTAL), AVG", "setting": "[1]", "result": 0.75},
      {"measurement": "BSS scoring E (eating/drinking), Time Bin 21 (100-105 TOTAL), AVG", "setting": "[1]", "result": 0.84},
      {"measurement": "BSS scoring E (eating/drinking), Time Bin 22 (105-110 TOTAL), AVG", "setting": "[1]", "result": 0.84},
      {"measurement": "BSS scoring E (eating/drinking), Time Bin 23 (110-115 TOTAL), AVG", "setting": "[1]", "result": 0.75},
      {"measurement": "BSS scoring E (eating/drinking), Time Bin 24 (115-120 TOTAL), AVG", "setting": "[1]", "result": 0.58},
      {"measurement": "BSS scoring G (grooming), Time Bin 19 (90-95 TOTAL), AVG", "setting": "[1]", "result": 0.04},
      {"measurement": "BSS scoring G (grooming), Time Bin 20 (95-100 TOTAL), AVG", "setting": "[1]", "result": 0.05},
      {"measurement": "BSS scoring G (grooming), Time Bin 21 (100-105 TOTAL), AVG", "setting": "[1]", "result": 0.05},
      {"measurement": "BSS scoring G (grooming), Time Bin 22 (105-110 TOTAL), AVG", "setting": "[1]", "result": 0.01},
      {"measurement": "BSS scoring G (grooming), Time Bin 23 (110-115 TOTAL), AVG", "setting": "[1]", "result": 0.08},
      {"measurement": "BSS scoring G (grooming), Time Bin 24 (115-120 TOTAL), AVG", "setting": "[1]", "result": 0.07},
      {"measurement": "BSS scoring R (resting), Time Bin 19 (90-95 TOTAL), AVG", "setting": "[1]", "result": 0.09},
      {"measurement": "BSS scoring R (resting), Time Bin 20 (95-100 TOTAL), AVG", "setting": "[1]", "result": 0.12},
      {"measurement": "BSS scoring R (resting), Time Bin 21 (100-105 TOTAL), AVG", "setting": "[1]", "result": 0.05},
      {"measurement": "BSS scoring R (resting), Time Bin 22 (105-110 TOTAL), AVG", "setting": "[1]", "result": 0.13},
      {"measurement": "BSS scoring R (resting), Time Bin 23 (110-115 TOTAL), AVG", "setting": "[1]", "result": 0.11},
      {"measurement": "BSS scoring R (resting), Time Bin 24 (115-120 TOTAL), AVG", "setting": "[1]", "result": 0.08},
      {"measurement": "BSS scoring A (active), Time Bin 19 (90-95 TOTAL)", "setting": "[2]", "result": "2 (3×) and 0 (7×) and 3 (2×)"},
      {"measurement": "BSS scoring A (active), Time Bin 20 (95-100 TOTAL)", "setting": "[2]", "result": "0 (7×) and 1 (2×) and 4 and 2 (2×)"},
      {"measurement": "BSS scoring A (active), Time Bin 21 (100-105 TOTAL)", "setting": "[2]", "result": "0 (7×) and 1 (4×) and 3"},
      {"measurement": "BSS scoring A (active), Time Bin 22 (105-110 TOTAL)", "setting": "[2]", "result": "0 (11×) and 2"},
      {"measurement": "BSS scoring A (active), Time Bin 23 (110-115 TOTAL)", "setting": "[2]", "result": "0 (6×) and 1 (5×) and 2"},
      {"measurement": "BSS scoring A (active), Time Bin 24 (115-120 TOTAL)", "setting": "[2]", "result": "0 (8×) and 6 and 1 and 3 and 2"},
      {"measurement": "BSS scoring E (eating/drinking), Time Bin 19 (90-95 TOTAL)", "setting": "[2]", "result": "8 and 9 (3×) and 5 (2×) and 10 (2×) and 7 (3×) and 6"},
      {"measurement": "BSS scoring E (eating/drinking), Time Bin 20 (95-100 TOTAL)", "setting": "[2]", "result": "9 (5×) and 8 and 0 and 10 (2×) and 4 and 6 and 7"},
      {"measurement": "BSS scoring E (eating/drinking), Time Bin 21 (100-105 TOTAL)", "setting": "[2]", "result": "8 (4×) and 9 (2×) and 7 (3×) and 10 (3×)"},
      {"measurement": "BSS scoring E (eating/drinking), Time Bin 22 (105-110 TOTAL)", "setting": "[2]", "result": "7 and 8 (4×) and 9 (3×) and 10 (3×) and 5"},
      {"measurement": "BSS scoring E (eating/drinking), Time Bin 23 (110-115 TOTAL)", "setting": "[2]", "result": "6 (5×) and 8 (3×) and 9 (4×)"},
      {"measurement": "BSS scoring E (eating/drinking), Time Bin 24 (115-120 TOTAL)", "setting": "[2]", "result": "10 (2×) and 9 and 0 (2×) and 7 (2×) and 4 (2×) and 5 and 6 and 8"},
      {"measurement": "BSS scoring G (grooming), Time Bin 19 (90-95 TOTAL)", "setting": "[2]", "result": "0 (9×) and 3 and 1 (2×)"},
      {"measurement": "BSS scoring G (grooming), Time Bin 20 (95-100 TOTAL)", "setting": "[2]", "result": "0 (7×) and 1 (4×) and 2"},
      {"measurement": "BSS scoring G (grooming), Time Bin 21 (100-105 TOTAL)", "setting": "[2]", "result": "0 (7×) and 1 (4×) and 2"},
      {"measurement": "BSS scoring G (grooming), Time Bin 22 (105-110 TOTAL)", "setting": "[2]", "result": "0 (11×) and 1"},
      {"measurement": "BSS scoring G (grooming), Time Bin 23 (110-115 TOTAL)", "setting": "[2]", "result": "4 and 2 (2×) and 0 (7×) and 1 (2×)"},
      {"measurement": "BSS scoring G (grooming), Time Bin 24 (115-120 TOTAL)", "setting": "[2]", "result": "0 (7×) and 2 (3×) and 1 (2×)"},
      {"measurement": "BSS scoring R (resting), Time Bin 19 (90-95 TOTAL)", "setting": "[2]", "result": "0 (6×) and 1 (3×) and 3 (2×) and 2"},
      {"measurement": "BSS scoring R (resting), Time Bin 20 (95-100 TOTAL)", "setting": "[2]", "result": "1 (5×) and 0 (5×) and 7 and 2"},
      {"measurement": "BSS scoring R (resting), Time Bin 21 (100-105 TOTAL)", "setting": "[2]", "result": "2 and 0 (9×) and 3 and 1"},
      {"measurement": "BSS scoring R (resting), Time Bin 22 (105-110 TOTAL)", "setting": "[2]", "result": "3 (2×) and 2 (4×) and 0 (4×) and 1 (2×)"},
      {"measurement": "BSS scoring R (resting), Time Bin 23 (110-115 TOTAL)", "setting": "[2]", "result": "0 (3×) and 1 (6×) and 2 (2×) and 3"},
      {"measurement": "BSS scoring R (resting), Time Bin 24 (115-120 TOTAL)", "setting": "[2]", "result": "0 (7×) and 1 (2×) and 4 and 2 (2×)"}
    ]}
  ]
}
